Literature values as cited in patent US7517693B2, “Method and apparatus for determining a molecular descriptor of absorption for a candidate compound” (North Carolina State University, priority 2002, dated 2009).

What was measured:
[1] = Table IV study compounds
[2] = Table III calibration compounds, known literature descriptor; for logL^16 (solute gas-hexadecane partition coefficient): 25° C.

| Compound | logKo/w [1] | logL^16 (solute gas-hexadecane partition coefficient) [2] | α (effective solute H-bond acidity) [2] | β (effective solute H-bond basicity) [2] | π (effective solute dipolarity and polarizability) [2] |
| --- | --- | --- | --- | --- | --- |
| CNC(=O)Oc1cccc2ccccc12 [Carbaryl] | 2.36 | – | – | – | – |
| Nc1ccc(C(=O)O)cc1 [4-aminobenzoic acid] | 0.83 | – | – | – | – |
| ClCCl [Dichloromethane] | – | 2.019 | 0.10 | 0.05 | 0.57 |
| Nc1ccccc1 [Aniline] | 0.90 | – | – | – | – |
| CCNc1nc(Cl)nc(NC(C)C)n1 [Atrazine] | 2.61 | – | – | – | – |
| Oc1ccc(Cl)cc1 [4-Chlorophenol] | – | 4.775 | 0.67 | 0.20 | 1.08 |
| OCC(F)(F)F [2,2,2-Trifluoroethanol] | – | 1.224 | 0.57 | 0.25 | 0.60 |
| CO [Methanol] | – | 0.970 | 0.43 | 0.47 | 0.44 |
| c1ccc2cc3ccccc3cc2c1 [Anthracene] | 4.45 | – | – | – | – |
| CCCCNCCCC [Di-n-butylamine] | – | 4.349 | 0.08 | 0.69 | 0.30 |
| CCCCCO [Compound 1-Pentanol, 1-Pentanol] | – | 3.106 | 0.37 | 0.48 | 0.42 |
| Nonylphenol | 5.99 | – | – | – | – |
| c1ccc2c(c1)ccc1ccccc12 [Phenanthrene] | – | 7.632 | 0.00 | 0.26 | 1.29 |
| CCF [Fluoroethane] | – | 0.559 | 0.00 | 0.10 | 0.35 |
| COc1cc(Cl)c(OC)cc1Cl [Chloroneb] | 3.44 | – | – | – | – |
| Oc1ccc2ccccc2c1 [Compound 2-Naphthol, 2-Naphthol] | – | – | 0.61 | 0.40 | 1.08 |
| CCCC(C)=O [Compound 2-pentanone, 2-pentanone] | 0.91 | – | – | – | – |
| CCCCCCCCCl [1-Chlorooctane] | – | 4.772 | 0.00 | 0.10 | 0.40 |
| CCOC(=O)C(O)(c1ccc(Cl)cc1)c1ccc(Cl)cc1 [Chlorobenzilate] | 4.74 | – | – | – | – |
| Oc1ccc(I)cc1 [Compound 4-Iodophenol, 4-Iodophenol] | – | 5.492 | 0.68 | 0.20 | 1.22 |

| Compound | logKo/w [1] | logL^16 (solute gas-hexadecane partition coefficient) [2] | α (effective solute H-bond acidity) [2] | β (effective solute H-bond basicity) [2] | π (effective solute dipolarity and polarizability) [2] |
| --- | --- | --- | --- | --- | --- |
| COc1ccccc1O [2-Methoxyphenol] | – | 4.449 | 0.22 | 0.52 | 0.91 |
| CCCCN [n-Butylamine] | – | – | 0.16 | 0.61 | 0.35 |
| Cl[C@H]1[C@H](Cl)[C@@H](Cl)[C@@H](Cl)[C@H](Cl)[C@H]1Cl [Lindane] | 3.72 | – | – | – | – |
| Oc1ccc(F)cc1 [4-Fluorophenol] | – | 3.844 | 0.63 | 0.23 | 0.97 |
| CC12CCC(CC1)C(C)(C)O2 [1,8-cineole] | 2.74 | – | – | – | – |
| Oc1ccccc1F [2-Fluorophenol] | – | 3.453 | 0.61 | 0.26 | 0.69 |
| c1ccccc1 [Benzene] | – | – | – | – | 0.52 |
| OC1CCCCC1 [Cyclohexanol] | – | – | 0.32 | 0.57 | 0.54 |
| CCOP(=O)(OCC)OCC [Triethyl phosphate] | – | 4.750 | 0.00 | 1.06 | 1.00 |
| CCCCCCCCCCCO [Compound 1-Undecanol, 1-Undecanol] | – | 6.130 | 0.37 | 0.48 | 0.42 |
| CCN(CC)CC [Triethylamine] | – | 3.040 | 0.00 | 0.79 | 0.15 |
| Sc1ccccc1 [Thiophenol] | – | – | 0.09 | 0.16 | 0.80 |
| CCCCI [Compound 1-iodobutane, 1-iodobutane] | 3.08 | – | – | – | – |
| CC(=O)CC(C)C [4-methyl-2-pentanone] | 1.31 | – | – | – | – |
| ClC=CCl [1,2-Dichloroethene] | – | – | 0.11 | 0.05 | 0.61 |
| Cc1ccccc1O [o-Cresol] | – | 4.218 | 0.52 | 0.30 | 0.86 |
| CCCCCCCCCCCCO [Compound 1-Dodecanol, 1-Dodecanol] | – | 6.640 | 0.37 | 0.48 | 0.42 |
| CCOCC [Diethylether] | – | – | 0.00 | 0.45 | 0.25 |
| C1CCCCC1 [Cyclohexane] | – | 2.964 | 0.00 | 0.00 | 0.10 |
| CCC(=O)c1ccccc1 [Ethylphenylketone] | – | 4.971 | 0.00 | 0.51 | 0.95 |

| Compound | logKo/w [1] | logL^16 (solute gas-hexadecane partition coefficient) [2] | α (effective solute H-bond acidity) [2] | β (effective solute H-bond basicity) [2] | π (effective solute dipolarity and polarizability) [2] |
| --- | --- | --- | --- | --- | --- |
| OCc1ccccc1 [Benzyl alcohol] | – | 4.221 | 0.33 | 0.56 | 0.87 |
| COC(=O)c1ccccc1C(=O)OC [Dimethyl phthalate] | – | – | 0.00 | 0.88 | 1.41 |
| Cc1cccc(C)c1 [m-xylene] | 3.20 | – | – | – | – |
| c1ncncn1 [1,3,5-triazine] | −1.17 | – | – | – | – |
| c1ccc2c(c1)sc1ccccc12 [Dibenzothiophen] | – | 7.575 | 0.00 | 0.18 | 1.31 |
| ClC(Cl)(Cl)Cl [Tetrachloromethane] | – | 2.823 | 0.00 | 0.00 | 0.38 |
| Oc1cccc(O)c1 [Resorcinol] | 0.8 | – | – | – | – |
| COC(=O)c1ccccc1O [methyl salicylate] | 2.55 | – | – | – | – |
| CN(C)C [Trimethylamine] | – | 1.620 | 0.00 | 0.67 | 0.20 |
| COC(=O)c1c(Cl)c(Cl)c(C(=O)OC)c(Cl)c1Cl [Dacthal] | 4.28 | – | – | – | – |
| C1CCNCC1 [Piperidine] | – | 3.304 | 0.10 | 0.69 | 0.46 |
| N#Cc1cccc(O)c1 [3-Cyanophenol] | – | 5.181 | 0.77 | 0.28 | 1.55 |
| COC(=O)c1cccnc1 [methyl nicotinate] | 0.64 | – | – | – | – |
| Cc1ccc([N+](=O)[O-])cc1 [4-Nitrotoluene] | – | 5.154 | 0.00 | 0.28 | 1.11 |
| N#Cc1ccc(O)cc1 [4-Cyanophenol] | – | – | 0.79 | 0.29 | 1.63 |
| C1CCCCCCC1 [Cyclooctane] | – | 4.329 | 0.00 | 0.00 | 0.10 |
| Cc1c(C)c(C)c(C)c(C)c1C [Hexamethylbenzene] | – | 6.557 | 0.00 | 0.21 | 0.72 |
| CCCCCCF [1-Fluorohexane] | – | 2.951 | 0.00 | 0.10 | 0.35 |
| CCN [Ethylamine] | – | 1.677 | 0.16 | 0.61 | 0.35 |
| CCCCCCCl [1-Chlorohexane] | – | 3.777 | 0.00 | 0.10 | 0.40 |
